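GI50: concentration for 50% inhibition of growth. The concentration for full growth arrest is given as TGI.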
What was measured:
Assay in all cases: NCI anticancer screen, dose series, 384-well format
[1] = system: A498 renal
[2] = system: A549 NSCLC
[3] = system: ACHN renal
[4] = system: BT-549 breast
[5] = system: COLO 205 colon
[6] = system: DU-145 prostate
[7] = system: EKVX NSCLC
[8] = system: HCC-2998 colon
[9] = system: HCT-116 colon
[10] = system: HCT-15 colon
[11] = system: HOP-62 NSCLC
[12] = system: HOP-92 NSCLC
[13] = system: HS 578T breast
[14] = system: HT29 colon
[15] = system: IGROV1 ovarian
[16] = system: K-562 leukemia
[17] = system: KM12 colon
[18] = system: LOX IMVI melanoma
[19] = system: M14 melanoma
[20] = system: MALME-3M melanoma
[21] = system: MCF7 breast
[22] = system: MDA-MB-231 breast
[23] = system: MDA-MB-435 melanoma
[24] = system: MDA-MB-468 breast
[25] = system: NCI-H226 lung
[26] = system: NCI-H23 lung
[27] = system: NCI-H322M lung
[28] = system: NCI-H460 NSCLC
[29] = system: NCI-H522 lung
[30] = system: NCI/ADR-RES ovarian
[31] = system: OVCAR-3 ovarian
[32] = system: OVCAR-4 ovarian
[33] = system: OVCAR-5 ovarian
[34] = system: OVCAR-8 ovarian
[35] = system: PC-3 prostate
[36] = system: RXF 393 renal
[37] = system: SF-268 CNS
[38] = system: SF-295 CNS
[39] = system: SF-539 CNS
[40] = system: SK-MEL-28 melanoma
[41] = system: SK-MEL-5 melanoma
[42] = system: SN12C renal
[43] = system: SNB-19 CNS
[44] = system: SNB-75 CNS
[45] = system: SW-620 colon
[46] = system: TK-10 renal
[47] = system: UO-31 renal

## Cn1cc(-c2ccc3c(c2)CCN3C(=O)Cc2cccc(C(F)(F)F)c2)c2c(N)ncnc21
[1]
  GI50: 0.967 µM
  TGI: 17.7 µM
[2]
  GI50: 6.71 µM
  TGI: > 61.4 µM
[3]
  GI50: 2.25 µM
  TGI: 19.8 µM
[4]
  GI50: 5 µM
  TGI: 17.6 µM
[5]
  GI50: 7.33 µM
  TGI: 21 µM
[6]
  GI50: 4.16 µM
  TGI: 22.3 µM
[7]
  GI50: 3.03 µM
  TGI: 16.2 µM
[8]
  GI50: 15.5 µM
  TGI: 29.6 µM
[9]
  GI50: 4.12 µM
  TGI: 17.1 µM
[10]
  GI50: 2.69 µM
  TGI: 17.6 µM
[11]
  GI50: 10.8 µM
  TGI: 30.3 µM
[12]
  GI50: 3.52 µM
  TGI: 13.3 µM
[13]
  GI50: 1.7 µM
  TGI: 7.47 µM
[14]
  GI50: 6.6 µM
  TGI: 19.6 µM
[15]
  GI50: 5.29 µM
  TGI: 49.9 µM
[16]
  GI50: 2.55 µM
  TGI: 11.4 µM
[17]
  GI50: 0.547 µM
  TGI: 18.2 µM
[18]
  GI50: 5.67 µM
  TGI: 18.2 µM
[19]
  GI50: 5.69 µM
  TGI: 21.5 µM
[20]
  GI50: 2.99 µM
  TGI: 13.7 µM
[21]
  GI50: 5.82 µM
  TGI: 20.3 µM
[22]
  GI50: 4.91 µM
  TGI: 15.6 µM
[23]
  GI50: 8.32 µM
  TGI: 29.8 µM
[24]
  GI50: 2.86 µM
  TGI: 10.7 µM
[25]
  GI50: 3.82 µM
  TGI: 18.1 µM
[26]
  GI50: 4.28 µM
  TGI: 15.9 µM
[27]
  GI50: 5.96 µM
  TGI: 27.7 µM
[28]
  GI50: 3.9 µM
  TGI: 16.5 µM
[29]
  GI50: 8.97 µM
  TGI: 21.5 µM
[30]
  GI50: 5.14 µM
  TGI: 19.7 µM
[31]
  GI50: 8.44 µM
  TGI: 21.6 µM
[32]
  GI50: 11.2 µM
  TGI: 25.1 µM
[33]
  GI50: 15.4 µM
  TGI: 29 µM
[34]
  GI50: 5.73 µM
  TGI: 54.7 µM
[35]
  GI50: 9.2 µM
  TGI: 22.6 µM
[36]
  GI50: 1.82 µM
  TGI: 8.86 µM
[37]
  GI50: 9.26 µM
  TGI: 23.8 µM
[38]
  GI50: 6.87 µM
  TGI: 20.5 µM
[39]
  GI50: 6.09 µM
  TGI: 19.2 µM
[40]
  GI50: 12.5 µM
  TGI: 37.3 µM
[41]
  GI50: 3.86 µM
  TGI: 9.56 µM
[42]
  GI50: 1.36 µM
  TGI: 8.59 µM
[43]
  GI50: 15.3 µM
  TGI: 42.9 µM
[44]
  GI50: 3.52 µM
  TGI: 14.2 µM
[45]
  GI50: 10.6 µM
  TGI: 22.9 µM
[46]
  GI50: 7.63 µM
  TGI: 26.1 µM
[47]
  GI50: 6.72 µM
  TGI: 28.4 µM

Reference: PubChem BioAssay (NCI)
